Test results published in US8575116B1, “Polyacetylenic compounds for protecting against pancreatic islet atrophy” (Academia Sinica, priority 2010, dated 2013).

Assays:
db/db mice = test: Intraperitoneal glucose tolerance test (IPGTT) in db/db mice; type: in vivo, mouse; conditions: 2.5 mgkg^−1 day^−1 for 6 weeks, day 42, db/db mice
Protocol: FIGS. 1A-F show the anti-diabetic effects of cytopiloyne in db/db mice during long-term treatment. (A) Chemical structure of cytopiloyne (2-β-D-glucopyranosyloxy-1-hydroxytrideca-5,7,9,11-tetrayne). (B) Four groups of 6-to-8-week-old diabetic db/db mice were tube-fed with vehicle, cytopiloyne (CP, 0.5 and 2.5 mgkg^−1 day^−1) or glimepiride (GLM, 2.5 mgkg^−1 day^−1) from 0 to 42 days post-treatment. Blood glucose (BG) levels in these mice were measured. (C) Blood insulin levels from the mice of FIG. 1B. (D) IPGTT was performed in the db/db mice of FIG. 1B on day 0, 28 and 42, and blood glucose levels were monitored for 3.5 h. (E) The percentage of glycosylated HbAlc of whole blood from the mice of FIG. 1B on day 0 and 42. (F) Pancreata of 8- and 16-week-old db/db males, which had received the same treatment as FIG. 1B for 2 (images a-h) and 10 (images i-p) weeks, were stained with hematoxylin and eosin (H&E, images a, c, e, g, i, k, m and o) or hematoxylin and anti-insulin (H&I, images b, d, f, h, j, l, n and p). […] Results from 3 independent experiments are expressed as mean±SEM, and P<0.05 was considered to be statistically significant (*). […]
Male db/db mice were administered either vehicle, cytopiloyne at 0.5 and 2.5 mgkg^−1 day^−1 or glimepiride at 2.5 mgkg^−1 day^−1 for the indicated time. […] The levels of blood sugar were monitored from −0.5 to 3 h after glucose administration.

[1] = system: rat pancreatic islet cells; test: Insulin release from rat pancreatic islets (ELISA); type: cell-based
Protocol: (§1) FIGS. 3A-C show cytopiloyne-mediated insulin release depends on pancreatic islet cells. (A) Rat pancreatic islet cells were incubated with glucose-free KRB buffer containing vehicle or cytopiloyne at 1.5, 3, 7, 14, 28 and 42 μM (FIG. 3A-i). Similarly, rat pancreatic islet cells were incubated with KRB buffer containing vehicle, glimepiride (GLM, 10 μM) or cytopiloyne at 1.5, 3, 7, 14, 28 and 42 μM in the presence of 3.3 mM glucose (LG, FIG. 3A-ii) or 16.7 mM glucose (HG, FIG. 3A-iii). The insulin levels were determined using an insulin ELISA kit. The data presented as mean±SEM of 3 independent experiments. (B) Fed C57BL mice, which had already received an injection of STZ, were administered with an oral dose of vehicle, cytopiloyne (CP, 0.1, 0.5 and 2.5 mgkg^−1), and an intraperitoneal injection of insulin (Ins, 2.5 IUkg^−1). Blood sugar levels in the STZ-treated mice were determined using a glucometer. (C) C57BL mice, which had already received STZ, were orally administered with a single dose of vehicle, cytopiloyne (CP, 0.5 and 2.5 mgkg^−1), glimepiride (GLM, 2.5 mgkg^−1), or metformin (60 mgkg^−1), followed by an intraperitoneal injection with insulin (Ins). Blood sugar levels in the STZ-treated mice were determined using a glucometer. All the results from 3 independent experiments are expressed as mean±SEM, and P<0.05 was considered to be statistically significant (*). The number of mice (n) is indicated in parentheses.
Glucose levels in mouse blood samples were measured using an Elite® glucometer (Bayer, Pittsburgh, Pa., USA). Insulin levels in blood samples or islet cell supernatants were determined by ELISA assays (Mercodia, Uppsala, Sweden). The levels of glycosylated HbA1c in mouse blood samples were measured using DCA 2000 analyzer (Bayer, Pittsburgh, Pa., USA).
Pancreatic islets (10 isletsml^−1) from fasted male Wistar rats were incubated with KRB buffer containing vehicle (1 μl DMSO per ml KRB buffer), glimepiride or cytopiloyne in the absence or presence of glucose for 30 min. The KRB buffer was then collected for ELISA assays.

STZ-treated C57BL mice = test: Blood glucose in STZ-treated (β-cell-depleted) C57BL mice; type: in vivo, mouse; conditions: cytopiloyne oral 0.1, 0.5 and 2.5 mgkg^−1; insulin i.p. 2.5 IUkg^−1
Protocol: as §1, with “(C) C57BL mice, which had already received STZ, were orally administered with a single dose of vehicle, cytopiloyne (CP, 0.5 and 2.5 mgkg^−1), glimepiride (GLM, 2.5 mgkg^−1), or metformin (60 mgkg^−1), followed by an intraperitoneal injection with insulin (Ins).” left out, “The number of mice (n) is indicated in parentheses.” left out
To deplete pancreatic β-cells in mice, 6-week-old C57BL females (NLAC, Taipei, Taiwan) were intraperitoneally injected with STZ at 200 mgkg^−1. […] Blood glucose levels were monitored for 4 h. […] Blood glucose levels in the mice were monitored from 0 to 4 h after insulin injection.

RIN-m5F cells = test: Intracellular calcium (Fura 2-AM) in RIN-m5F cells; type: cell-based, rat; conditions: cytopiloyne 7, 14 and 28 μM, glucose 16.7 mM
Protocol: FIGS. 5A-D show the effects of cytopiloyne on calcium mobilization, DAG generation and PKCa activation. (A) After Fura 2-AM loading, RIN-m5F cells were stimulated with 16.7 mM glucose (HG) and cytopiloyne at 7, 14 and 28 μM. Level of intracellular calcium, as shown by the 340/380 nm ratio, was detected using a fluorescence spectrophotometer. (B) RIN-m5F cells were pulsed with ^3H-myristic acid (5 Cim1^−1) for 16 hours. After washing, the cells were stimulated with glucose, cytopiloyne, PMA and glimepiride. Total lipids were separated on a silica thin layer plate. DAG and cholesterol were visualized with iodine vapor and identified by their standards. (C) RIN-m5F cells were incubated with vehicle (Mock), cytopiloyne (CP, 3, 7 and 14 μM), PMA (1 μM) and 16.7 mM (HG). Membrane or cytosolic proteins were subjected to Western blot with anti-PKCα and anti-Actin antibodies. (D) RIN-m5F cells were incubated with vehicle (Mock), cytopiloyne (CP 7 μM) and PMA (1 μM). […]
RIN-m5F cells were pre-loaded with Fura 2-AM (5 μM) in modified Krebs-Henseleit buffer for 30 min at 25° C. […] Intracellular calcium of the cells was measured using a fluorescence spectrophotometer (CAF 110, Jasco, Tokyo, Japan) at excitation wavelengths of 340 and 380 nm and an emission wavelength of 500 nm. The ratio of fluorescence intensity at 340 nm to that at 380 nm represents the level of intracellular calcium.

PKCα = PKCα translocation and phosphorylation (Western blot) in RIN-m5F cells; type: cell-based, rat; conditions: PMA 1 μM, glucose 16.7 mM
Protocol: FIGS. 5A-D show the effects of cytopiloyne on calcium mobilization, DAG generation and PKCa activation. (A) After Fura 2-AM loading, RIN-m5F cells were stimulated with 16.7 mM glucose (HG) and cytopiloyne at 7, 14 and 28 μM. Level of intracellular calcium, as shown by the 340/380 nm ratio, was detected using a fluorescence spectrophotometer. (B) RIN-m5F cells were pulsed with ^3H-myristic acid (5 Cim1^−1) for 16 hours. After washing, the cells were stimulated with glucose, cytopiloyne, PMA and glimepiride. Total lipids were separated on a silica thin layer plate. DAG and cholesterol were visualized with iodine vapor and identified by their standards. (C) RIN-m5F cells were incubated with vehicle (Mock), cytopiloyne (CP, 3, 7 and 14 μM), PMA (1 μM) and 16.7 mM (HG). Membrane or cytosolic proteins were subjected to Western blot with anti-PKCα and anti-Actin antibodies. (D) RIN-m5F cells were incubated with vehicle (Mock), cytopiloyne (CP 7 μM) and PMA (1 μM). After lysis, total lystaes were subjected to Western blot with anti-PKCα, anti-phospho-PKCα and anti-Actin antibodies.

3T3-L1 cells = type: cell-based, mouse; conditions: differentiating 3T3-L1 cells; glimepiride 10 μM, rosiglitazone 1 μM, cytopiloyne 50 μM

CC#CC#CC#CC#CCCC(CO)O[C@@H]1O[C@H](CO)[C@@H](O)[C@H](O)[C@H]1O (stereo partly drawn) [cytopiloyne, 2-β-D-glucopyranosyloxy-1-hydroxytrideca-5,7,9,11-tetrayne]
glucose tolerance (IPGTT) (db/db mice): improved glucose tolerance in db/db mice to a greater extent than glimepiride | insulin secretion from rat islets ([1]; 16.7 mM glucose KRB, also glucose-free and low glucose media): enhanced insulin secretion in high glucose medium | insulin secretion in the absence of glucose ([1]; high dose, glucose-free KRB buffer): can still stimulate insulin secretion to some extent even in the absence of glucose | insulin release in pancreatic islets, glucose dependence ([1]; low dose (e.g., 3 μM), 0, 3.3 and 16.7 mM glucose): simulates insulin release in pancreatic islets in a glucose-dependent manner | reduction of hyperglycemia / blood glucose in β-cell-depleted mice (STZ-treated C57BL mice): lost its ability in regulating both responses | intracellular calcium (340/380 nm ratio) (RIN-m5F cells): increased intracellular calcium in a dose-dependent manner | phosphorylation of PKCα (PKCα; cytopiloyne 7 μM): increased phosphorylation of PKCα | translocation of PKCα from cytoplasm to membrane (PKCα; cytopiloyne 3, 7 and 14 μM): It was the case | lipid accumulation (lipid droplets, Oil red O) (3T3-L1 cells): same basal level of lipid droplets as the control
